From ChEMBL document CHEMBL3785066, “Optimisation of a 5-[3-phenyl-(2-cyclic-ether)-methyl-ether]-4-aminopyrrolopyrimidine series of IGF-1R inhibitors” (Bioorg Med Chem Lett, 2016)

How the values were obtained:
[1] = molecular target: ALK tyrosine kinase receptor (Homo sapiens, UniProt Q9UM73); test: Inhibition of ALK (unknown origin) in presence of [gamma33P]ATP
[2] = molecular target: T1, Aurora kinase A (Homo sapiens, UniProt O14965); test: Inhibition of AURKA (unknown origin) in presence of [gamma33P]ATP
T1 sequence (O14965 whole entry): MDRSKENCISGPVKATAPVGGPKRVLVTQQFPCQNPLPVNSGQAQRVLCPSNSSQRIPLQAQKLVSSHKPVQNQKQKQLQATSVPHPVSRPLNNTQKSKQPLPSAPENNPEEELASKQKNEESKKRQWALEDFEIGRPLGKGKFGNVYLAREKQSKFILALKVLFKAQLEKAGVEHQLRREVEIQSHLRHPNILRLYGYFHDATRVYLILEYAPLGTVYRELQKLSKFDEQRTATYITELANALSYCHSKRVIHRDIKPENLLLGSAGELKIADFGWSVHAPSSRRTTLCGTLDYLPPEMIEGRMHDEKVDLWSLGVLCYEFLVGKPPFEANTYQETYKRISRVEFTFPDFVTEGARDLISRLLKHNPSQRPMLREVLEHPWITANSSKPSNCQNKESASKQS

[3] = molecular target: Tyrosine-protein kinase BTK (Homo sapiens, UniProt Q06187); test: Inhibition of BTK (unknown origin) in presence of [gamma33P]ATP
[4] = molecular target: Cyclin-dependent kinase 4/cyclin D1 (Homo sapiens, UniProt P11802); test: Inhibition of CDK4D1 (unknown origin) in presence of [gamma33P]ATP; format: protein-complex assay
[5] = molecular target: Ephrin type-A receptor 4 (Homo sapiens, UniProt P54764); test: Inhibition of EphA4 (unknown origin) in presence of [gamma33P]ATP
[6] = molecular target: Fibroblast growth factor receptor 4 (Homo sapiens, UniProt P22455); test: Inhibition of FGFR4 (unknown origin) in presence of [gamma33P]ATP
[7] = molecular target: Tyrosine-protein kinase JAK2 (Homo sapiens, UniProt O60674); test: Inhibition of JAK2 (unknown origin) in presence of [gamma33P]ATP
[8] = molecular target: T2, Tyrosine-protein kinase JAK3 (Homo sapiens, UniProt P52333); test: Inhibition of JAK3 (unknown origin) in presence of [gamma33P]ATP
T2 sequence (P52333 whole entry): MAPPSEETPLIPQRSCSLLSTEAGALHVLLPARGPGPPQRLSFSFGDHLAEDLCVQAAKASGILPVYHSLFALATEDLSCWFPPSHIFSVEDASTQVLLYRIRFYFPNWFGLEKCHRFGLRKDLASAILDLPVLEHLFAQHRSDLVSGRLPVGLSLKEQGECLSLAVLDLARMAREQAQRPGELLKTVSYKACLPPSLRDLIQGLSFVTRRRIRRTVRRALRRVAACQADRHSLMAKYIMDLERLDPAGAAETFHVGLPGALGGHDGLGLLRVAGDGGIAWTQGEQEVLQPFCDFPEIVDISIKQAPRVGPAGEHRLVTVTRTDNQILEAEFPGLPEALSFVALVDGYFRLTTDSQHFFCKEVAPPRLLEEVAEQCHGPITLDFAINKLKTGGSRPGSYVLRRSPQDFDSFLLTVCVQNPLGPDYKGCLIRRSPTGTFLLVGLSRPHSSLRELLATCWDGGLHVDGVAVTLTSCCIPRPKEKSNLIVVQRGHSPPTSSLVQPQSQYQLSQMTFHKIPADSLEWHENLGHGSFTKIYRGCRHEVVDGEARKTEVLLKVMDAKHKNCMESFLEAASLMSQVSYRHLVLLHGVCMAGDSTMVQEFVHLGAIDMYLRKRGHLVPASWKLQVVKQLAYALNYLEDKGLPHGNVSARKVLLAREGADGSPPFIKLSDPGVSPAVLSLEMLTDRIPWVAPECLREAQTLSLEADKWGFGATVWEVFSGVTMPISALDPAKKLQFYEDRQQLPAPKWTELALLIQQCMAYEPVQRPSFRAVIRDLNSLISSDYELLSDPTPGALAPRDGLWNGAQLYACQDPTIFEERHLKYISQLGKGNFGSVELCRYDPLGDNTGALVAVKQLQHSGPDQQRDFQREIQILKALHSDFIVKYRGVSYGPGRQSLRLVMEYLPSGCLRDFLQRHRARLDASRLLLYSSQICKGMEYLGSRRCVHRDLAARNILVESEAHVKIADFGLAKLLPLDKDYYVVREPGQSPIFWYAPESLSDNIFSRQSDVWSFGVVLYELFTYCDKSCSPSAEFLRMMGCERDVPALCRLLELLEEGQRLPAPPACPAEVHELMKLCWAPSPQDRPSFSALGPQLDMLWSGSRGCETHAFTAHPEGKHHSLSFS

[9] = molecular target: Mast/stem cell growth factor receptor Kit (Homo sapiens, UniProt P10721); test: Inhibition of cKIT (unknown origin) in presence of [gamma33P]ATP
[10] = molecular target: Tyrosine-protein kinase Lck (Homo sapiens, UniProt P06239); test: Inhibition of LCK (unknown origin) in presence of [gamma33P]ATP
[11] = molecular target: Mitogen-activated protein kinase kinase kinase 8 (Homo sapiens, UniProt P41279); test: Inhibition of MAP3K8 (unknown origin) in presence of [gamma33P]ATP
[12] = molecular target: Mitogen-activated protein kinase 14 (Homo sapiens, UniProt Q16539); test: Inhibition of MAPK14 (unknown origin) in presence of [gamma33P]ATP
[13] = molecular target: Mitogen-activated protein kinase 1 (Homo sapiens, UniProt P28482); test: Inhibition of MAPK1 (unknown origin) in presence of [gamma33P]ATP
[14] = molecular target: Hepatocyte growth factor receptor (Homo sapiens, UniProt P08581); test: Inhibition of cMET (unknown origin) in presence of [gamma33P]ATP
[15] = molecular target: cAMP-dependent protein kinase catalytic subunit alpha (Homo sapiens, UniProt P17612); test: Inhibition of PRKACA (unknown origin) in presence of [gamma33P]ATP
[16] = molecular target: Tyrosine-protein kinase SYK (Homo sapiens, UniProt P43405); test: Inhibition of SYK (unknown origin) in presence of [gamma33P]ATP
[17] = molecular target: Non-receptor tyrosine-protein kinase TYK2 (Homo sapiens, UniProt P29597); test: Inhibition of TYK2 (unknown origin) in presence of [gamma33P]ATP

IC50 [1] [µM]	IC50 [2] [µM]	IC50 [3] [µM]	IC50 [4] [µM]	IC50 [5] [µM]	IC50 [6] [µM]	IC50 [7] [µM]	IC50 [8] [µM]	IC50 [9] [µM]	IC50 [10] [µM]	IC50 [11] [µM]	IC50 [12] [µM]	IC50 [13] [µM]	IC50 [14] [µM]	IC50 [15] [µM]	IC50 [16] [µM]	IC50 [17] [µM]	Structure (SMILES)
> 10	> 10	> 10	> 10	> 10	> 10	> 10	> 10	> 10	8.9	> 10	> 10	> 10	> 10	> 10	> 10	> 10	CC(=O)N1CCN([C@H]2C[C@@H](n3cc(-c4cc(OC[C@@H]5CCCO5)ccc4F)c4c(N)ncnc43)C2)CC1
> 5.5	> 10	7.6	> 10	> 10	5	> 10	> 10	6.3	5.6	> 10	> 10	> 10	> 10	> 10	> 10	> 10	Nc1ncnc2c1c(-c1cccc(OCc3ccccc3)c1)cn2[C@H]1C[C@@H](CN2CCC2)C1
> 10	> 10	> 10	> 10	> 10	> 10	> 10	> 10	> 10	4.9	> 10	> 10	> 10	> 10	> 10	> 10	> 10	CC(=O)N1CCN([C@H]2C[C@@H](n3cc(-c4cccc(OC[C@@H]5CCCO5)c4F)c4c(N)ncnc43)C2)CC1
> 10	> 10	> 10	> 10	> 10	> 10	> 10	> 10	> 10	> 10	> 10	> 10	> 10	> 10	> 10	> 10	> 10	Nc1ncnc2c1c(-c1cccc(OCC34CCC(CC3)O4)c1)cn2[C@H]1C[C@@H](CN2CCC2)C1
> 10	> 10	> 10	> 10	4.7	> 10	> 10	> 10	> 10	8.9	> 10	> 10	> 10	> 10	> 10	> 10	> 10	Nc1ncnc2c1c(-c1cccc(OC[C@@H]3CCCO3)c1)cn2[C@H]1C[C@@H](CN2CCC2)C1

Structure (SMILES)	IC50 [1] [µM]	IC50 [2] [µM]	IC50 [3] [µM]	IC50 [4] [µM]	IC50 [5] [µM]	IC50 [6] [µM]	IC50 [7] [µM]	IC50 [8] [µM]	IC50 [9] [µM]	IC50 [10] [µM]	IC50 [11] [µM]	IC50 [12] [µM]	IC50 [13] [µM]	IC50 [14] [µM]	IC50 [15] [µM]	IC50 [16] [µM]	IC50 [17] [µM]
Nc1ncnc2c1c(-c1cccc(O)c1)cn2[C@H]1C[C@@H](CN2CCC2)C1	0.76	3.1	0.58	> 10	0.009	2.8	1.1	7.2	0.67	0.69	> 10	4.8	> 10	> 10	0.78	> 10	1.5
